Data taken from ChEMBL document CHEMBL2363022, “Malaria Box Schistosomiasis Screening Data” (2013).

Experiments:
Type in all cases: functional
Parameters in all cases: scale not given here
[1] = system: Schistosoma mansoni
[2] = system: Schistosoma mansoni; remark: listed apart in the source
[3] = system: Schistosoma mansoni; remark: listed apart in the source

| SMILES | Toxicity [1] | Toxicity [2] | Toxicity [3] |
| --- | --- | --- | --- |
| CCOC(=O)c1cnc2ccc(OC)cc2c1Nc1ccc(N2CCN(C)CC2)cc1 | 0 | 4 | 4 |
| Cl.c1ccc2c(NCCCCCCNc3c4c(nc5ccccc35)CCCC4)c3c(nc2c1)CCCC3 | 4 | 4 | 4 |
| CCCCc1c(CCC)c(=N)c2ccccc2n1C.I | 0 | 0 | 0 |
| O=C(Nc1ccc(-c2nc3cc4ccccc4cc3[nH]2)cc1)c1cccc(Br)c1 | 0 | 2 | 0 |
| CC1CC2=C(CC1CNCCCN(C)C)C(C)(C)CCC2 (centres undefined) | 4 | 4 | 4 |
| COc1ccccc1CNC(=O)CCn1c(=O)[nH]c2ccsc2c1=O | 0 | 0 | 0 |
| CCOc1c(Br)cc(C2C(C(=O)OC)=CN(C)C=C2C(=O)OC)cc1OC | 0 | 0 | 0 |
| CCCc1c(C)nc2ccc(Br)cc2c1O | 0 | 0 | 0 |
| O=C(NCC1Cc2cccc(-c3ccncc3)c2O1)c1csc2c1CCCC2 (centres undefined) | 0 | 0 | 0 |
| CC1CCCCN1CCCNC(=O)c1ccc2c(c1)sc1nc(-c3ccc(F)cc3)cn12 (centres undefined) | 2 | 1 | 0 |
| Cc1ccccc1OCCSc1nc2ccc(NC(=O)c3ccccc3)cc2s1 | 0 | 0 | 0 |
| COc1ccc(C)c2sc(N(Cc3cccnc3)C(=O)c3ccc(C#N)cc3)nc12 | 0 | 0 | 0 |
| Br.Cc1ccc(C)c(-c2csc(Nc3ccc(C)c(C)c3)n2)c1 | 0 | 0 | 1 |
| CCCCc1c(C)nc2c(OC)cccc2c1O | 0 | 0 | 0 |
| O=C(Nc1ccc(CN2CCOCC2)cc1)c1ccc(-c2ccc(Br)cc2)o1 | 0 | 0 | 0 |
| COCCN(C(=O)Cc1cccs1)C(C(=O)NCc1ccc(OC)cc1)c1ccc(C(C)C)cc1 (centres undefined) | 0 | 0 | 0 |
| O=C(NNc1cc(N2CCCC2)nc(N2CCCC2)n1)c1ccccc1 | 1 | 4 | 0 |
| CCN1CCN(Cc2ccc(NC(=O)c3cc4ccc5cccnc5c4[nH]3)cc2)CC1 | 0 | 0 | 1 |
| CCOC(=O)C1=CN(C)C=C(C(=O)OCC)C1c1cc(Br)c(OCC)c(OC)c1 | 0 | 0 | 0 |
| COc1ccc(-c2c(C)nn3c(N)c(C#N)cnc23)cc1OC | 1 | 1 | 1 |
| CCCCCn1c(=N)n(CC(O)COc2cccc(C)c2)c2ccccc21.Cl (centres undefined) | 2 | 4 | 4 |
| CN(N=O)C1=C(NC2CCCCC2)C(=O)c2ccccc2C1=O | 0 | 0 | 0 |
| CC(C)(C)C(=O)Nc1ccc(C(=O)Nc2cccc(-c3nc4ccccc4[nH]3)c2)cc1 | 0 | 2 | 0 |

| SMILES | Toxicity [1] | Toxicity [2] | Toxicity [3] |
| --- | --- | --- | --- |
| Cc1cc(Nc2cccc(F)c2)nc(NCc2ccccc2)n1 | 2 | 0 | 0 |
| Oc1ccc(Cl)cc1CNc1nc2ccccc2[nH]1 | 0 | 0 | 0 |
| O=C(Nc1ccc(Cl)cc1C(=O)Nc1ccncc1)c1ccc(Cl)cc1Cl | 0 | 0 | 0 |
| O=C(Nc1ccc(N2CCCCC2)c(Cl)c1)c1ccc(Br)o1 | 0 | 0 | 0 |
| COc1ccc(-c2cc(=O)oc3c4c(ccc23)OCN(Cc2ccc(F)cc2)C4)cc1 | 0 | 0 | 0 |
| Cc1ccc(S(=O)(=O)c2c(COC(=O)c3cccc(C)c3)c(-c3ccccc3)nn2C)cc1 | 0 | 0 | 0 |
| Nc1ccc(-c2nc3cc(Cc4ccc5[nH]c(-c6ccc(N)cc6)nc5c4)ccc3[nH]2)cc1 | 1 | 1 | 1 |
| Cc1ccc2cc3c(N)c4c(C)ccc(C)c4nc3nc2c1 | 0 | 0 | 0 |
| Cc1ccc(F)cc1NC(=O)c1cc(Cl)ccc1Nc1ccccc1 | 0 | 0 | 0 |
| CCOc1ccc(-c2nonc2NC(=O)c2cccc(C)c2)cc1OCC | 0 | 0 | 0 |
| Cc1ccc(Nc2nc(N)c3ccccc3n2)cc1Cl | 2 | 2 | 2 |
| O=C(c1ccccc1F)N(Cc1ccc(Cl)cc1)c1ccccn1 | 0 | 0 | 0 |
| CN1CCN(c2c3c(c(C#N)c4nc5ccccc5n24)CCC3)CC1 | 0 | 0 | 0 |
| CCOc1ccc(C2N(C)c3ccccc3N2C)cc1 | 2 | 0 | 0 |
| Cc1cc(C=C2SC(=Nc3ccccc3)N(C3CCCC3)C2=O)c(C)n1-c1ccc(Cl)cc1 | 0 | 0 | 0 |
| CN(C)CCCNc1c2ccccc2nc2ccccc12 | 2 | 4 | 2 |
| COc1ccc(-c2cc3c(SCC(=O)Nc4cc(C(F)(F)F)ccc4Cl)nccn3n2)cc1 | 0 | 0 | 0 |
| Nc1ccc(-c2nc3cc(Oc4ccc(Oc5ccc6[nH]c(-c7ccc(N)cc7)nc6c5)cc4)ccc3[nH]2)cc1 | 0 | 2 | 0 |
| COc1ccc(C(C)=O)cc1N1C(=O)C2C(C1=O)C1(c3ccccc3)C(=O)C2(c2ccccc2)C(c2ccc(C)cc2)=C1c1ccc(C)cc1 (centres undefined) | 0 | 0 | 0 |
| Cc1ccc(CSCc2ccc(C(=O)NC3CC3)o2)cc1 | 0 | 0 | 0 |
| C=CCc1c(C)nc2ccccc2c1O | 0 | 0 | 0 |
| CC1CCN(Cc2c(O)ccc3cc(-c4nc5ccccc5s4)c(=O)oc23)CC1 | 0 | 0 | 0 |
| CN(C)c1ccc(N2C(N)=NC(N)=NC2(C)C)cc1 | 0 | 0 | 0 |

| SMILES | Toxicity [1] | Toxicity [2] | Toxicity [3] |
| --- | --- | --- | --- |
| COc1ccc2c(c1OC)C(=O)N1c3ccccc3N=C(c3ccc(C)cc3)CC21 (centres undefined) | 0 | 0 | 0 |
| CCCCCCC(O)(c1ccc(F)cc1)C(CN1CCOCC1)c1ccccc1.Cl (centres undefined) | 0 | 0 | 0 |
| O=C1c2ccc3c4c(ccc(c24)C(=O)N1CCCCO)C(=O)N(CCCCO)C3=O | 0 | 4 | 0 |
| COc1ccc(C2N(C)c3ccccc3N2C)cc1 | 0 | 0 | 0 |
| COc1ccccc1CNC(=O)C1c2ccccc2C(=O)N(CC(C)C)C1c1cccs1 (centres undefined) | 0 | 0 | 0 |
| CCCCCCc1cc2cc(-c3csc(C=Cc4ccccc4)n3)c(=O)oc2cc1O | 0 | 0 | 0 |
| Cc1cc(NC(=O)c2ccc(-c3ccccc3)cc2)no1 | 0 | 0 | 0 |
| CC(C)(C)c1ccc(C(=O)Nc2c3c(nn2-c2cccc(Cl)c2)CSC3)cc1 | 0 | 0 | 0 |
| Cc1ccc(N2C3c4ccccc4N(S(=O)(=O)c4ccc(C)cc4)C2c2ccccc2N3S(=O)(=O)c2ccc(C)cc2)cc1 | 0 | 0 | 0 |
| CCOc1ccccc1CNC(=O)C1c2ccccc2C(=O)N(CC(C)C)C1c1cccs1 (centres undefined) | 0 | 4 | 0 |
| FC(F)(F)c1cccc(Nc2nc3ccccc3nc2Nc2cccc(C(F)(F)F)c2)c1 | 3 | 4 | 4 |
| CSC1=NC(=Nc2c(C)cccc2C)C2(CCC(C(C)(C)C)CC2)N1c1ccc(Cl)cc1 (centres undefined) | 1 | 0 | 1 |
| C[n+]1c2ccccc2nc2ccc(NCCO)cc21 | 0 | 3 | 0 |
| O=C(NCc1ccco1)C1CCN(S(=O)(=O)c2ccc(Cl)cc2)CC1 | 0 | 0 | 0 |
| COc1ccc2c(c1)C1(Nc3ccccc3-c3nc4ccccc4n31)C(=O)N2 (centres undefined) | 0 | 0 | 0 |
| COc1cc(OC)cc(N2C(=O)N(Cc3ccc(C(C)(C)C)cc3)c3ccccc3S2(=O)=O)c1 | 0 | 0 | 0 |
| CCCN(CCC)CC(O)COc1ccccc1C(=O)Nc1ccccc1 (centres undefined) | 0 | 0 | 0 |
| COc1ccc(CCNC(=O)c2cc(S(=O)(=O)N3CC(C)CC(C)C3)ccc2Sc2ccc(F)cc2)cc1OC (centres undefined) | 4 | 4 | 4 |
| CCCOCc1cc(CN2CCN(c3cccc(Cl)c3)CC2)c(O)c2ncccc12 | 3 | 4 | 4 |
| CCOC(=O)c1c(C)n(-c2ccccc2)c2ccc(OC(=O)c3cc(OC)c(OC)c(OC)c3)cc12 | 0 | 0 | 0 |
| CN1c2ccccc2N(C)C1c1ccc2c(c1)OCO2 | 1 | 0 | 0 |
| OC(Cn1nnc2ccccc21)Cn1c2ccc(Br)cc2c2cc(Br)ccc21 (centres undefined) | 0 | 0 | 0 |
